Test system: collagen induced arthritis
Test: Collagen induced arthritis model in DBA/1 mice
Format: in vivo
Details: Dexamethasone dose not given; for clinical score: JBI-589 50 mg/kg po BID day 0-45; for clinical score / bone erosion (histopathology) / joint inflammation (histopathology) / pannus formation (histopathology): Etanercept 25 mg/kg IP day 31–45

Row | Compound | clinical score | bone erosion (histopathology) (JBI-589 50 mg/kg po BID) | joint inflammation (histopathology) (JBI-589 50 mg/kg po BID) | pannus formation (histopathology) (JBI-589 50 mg/kg po BID) | spleen weight (day 45, JBI-589 50 mg/kg po BID) | body weight (end of study, JBI-589 50 mg/kg po BID)
1 | Etanercept | comparable inhibition | no appreciable effect | no appreciable effect | no appreciable effect |  | 
2 | C[C@@H]1C[C@H]2[C@@H]3CCC4=CC(=O)C=C[C@]4(C)[C@@]3(F)[C@@H](O)C[C@]2(C)[C@@]1(O)C(=O)CO [Dexamethasone] | strong inhibition | significantly decreased | significantly decreased | significantly decreased | stronger reduction | stronger reduction
